“Also recorded” adds a separate entry of the source. Where a SMILES comes first, the peptide text is derived from it. Bridges are numbered along the chain shown (N, C = ends).
Assays:
[1] = tested on: ICR healthy mice; test: Single administration toxicity study: hematological examination; type: in vivo; conditions: single airway spray, day 14 post-dose, EDTA whole blood, automated hematology analyzer, mean ± s
Protocol: (§1) Specific pathogen-free (SIPF) grade ICR healthy mice (with an equal number of males and females, procured from Hunan Slaughter King Laboratory Animal Co., Changsha, China) were randomly divided into four experimental groups and received ShSPI via airway spray at doses of 0 mg/kg (control), 40 mg/kg, 80 mg/kg, or 160 mg/kg in a single administration. Following treatment, the mice were monitored for a 14-day observation period. On the fourteenth day, blood plasma samples were collected for precise measurement and analysis of hematological and biochemical parameters. The specific process is as follows.
On day 14 post-dose, approximately 1.7–2.0 mL of whole blood was collected for hematological and biochemical analyses. Hematological parameters were assessed using an automated hematology analyzer, while biochemical parameters were evaluated with an automated biochemistry analyzer. Prior to blood collection, all mice were fasted for at least 12 h. For hematological analysis, 200 μL of whole blood was immediately transferred into EDTA-containing tubes. For biochemical analysis, 1.5 mL of whole blood was placed into serum separator tubes without anticoagulant and centrifuged to isolate serum.

[2] = tested on: MCP-1, IL-6, IL-1β, IFN-γ, IL-10, TGF-β mRNA in lung tissue; test: RT-qPCR of inflammatory factor mRNA in lung tissue of IPF mice; type: in vivo, ICR mice; conditions: tracheal spray once daily for 7 days, BLM-induced IPF mice
Protocol: Animal Model Preparation: The peptide powder was dissolved in pre-cooled saline and filtered to remove bacteria, then a spray needle was attached to a micro-syringe to aspirate the peptide solution. A total of 56 ICR mice were anesthetized by intramuscular injection of avertin. After anesthesia, the mice were fixed supine, the tongue was gently pulled, the vocal folds were exposed with a laryngoscope, the trachea was gently inserted, and the nebulized solution was rapidly pushed and injected. Each mouse was administered 100 μL of a 0.4 mg/mL bleomycin solution via tracheal spray, with the treatment performed once. Seven days after modeling, the mice were randomly grouped for ShSPI treatment based on weight loss scores. An additional 8 mice received the vehicle (normal saline) and were designated as the sham group.
A total of 48 suitable mice were randomly divided into five groups: the model control group (MC), the positive control group (PC), and the ShSPI low-dose groups (1 mg/kg), medium-dose groups (2 mg/kg), and high-dose groups (4 mg/kg).
Drug Administration: Starting on day 7 post-modeling, ShSPI peptide treatment groups were anesthetized with intramuscular avertin and received tracheal spray administration of the peptide. The low-dose group was treated with 1 mg/kg ShSPI peptide, the medium-dose group with 2 mg/kg, and the high-dose group with 4 mg/kg. The positive control group, without anesthesia, received 200 mg/kg pirfenidone (IPFD) via oral gavage. All groups were treated once daily for seven consecutive days.
The left lobe of the lung was collected from each mouse for total RNA extraction using RNAiso Plus, following the manufacturer’s instructions. The extracted RNA was quantified using a UV spectrophotometer. One microgram of total RNA was reverse transcribed into cDNA using a first-strand cDNA synthesis kit, following the provided protocol. Quantitative PCR (qPCR) was performed on a QuantStudio system using 2× SYBR Green qPCR Master Mix, and β-actin served as the internal control. The PCR reaction utilized a two-step protocol: 95 °C for 15 s, followed by 60 °C for 60 s, repeated for 40 cycles. Gene expression levels were calculated using the 2^−ΔΔCt method.

[3] = tested on: ICR healthy mice; test: Single administration toxicity study: overall toxicity and examination of major organs; type: in vivo; conditions: single airway spray
Protocol: as §1
At the end of the 14-day observation period, all mice underwent a comprehensive gross anatomical examination. Key organs, including the heart, liver, spleen, lungs, kidneys, brain, and gastrointestinal tract, were evaluated for changes in surface color, morphological structure, size, and tissue texture.

CC[C@H](C)[C@@H]1NC(=O)[C@H](C)NC(=O)[C@@H]2CCCN2C(=O)[C@@H]2CSSC[C@H](NC(=O)[C@H](CO)NC(=O)[C@H](CC(N)=O)NC(=O)[C@H](CO)NC(=O)[C@H](Cc3ccc(O)cc3)NC(=O)[C@H](CCSC)NC(=O)[C@H](CCCNC(=N)N)NC(=O)CNC(=O)[C@H](Cc3ccccc3)NC(=O)[C@H](CCC(=O)O)NC(=O)[C@H](CC(=O)O)NC(=O)[C@H](Cc3ccccc3)NC(=O)[C@H](C(C)C)NC(=O)[C@@H]3CCCN3C(=O)[C@H](CCC(N)=O)NC(=O)[C@H](Cc3ccc(O)cc3)NC1=O)C(=O)N[C@@H](CCC(=O)O)C(=O)N[C@@H](CCSC)C(=O)N[C@@H](CCC(N)=O)C(=O)N[C@@H](CCCNC(=N)N)C(=O)N[C@@H](C)C(=O)N[C@@H](CCCNC(=N)N)C(=O)N[C@H](C(=O)N[C@@H](CC(C)C)C(=O)N[C@@H](CCCNC(=N)N)C(=O)NCC(=O)O)CSSC[C@H](N)C(=O)N1CCC[C@H]1C(=O)N[C@@H](CCC(N)=O)C(=O)N[C@@H](C(C)C)C(=O)N2 [ShSPI] (H-CPQVCPAIYQPVFDEFGRMYSNSCEMQRARCLRG-OH; disulfide 1-31, 5-24; N-terminus and C-terminus assumed)
Bas ([1]; 40 mg/kg ShSPI, n = 6): 0.02 ± 0.01 10^9/L | Bas% ([1]; 40 mg/kg ShSPI, n = 6): 0.35 ± 0.28% | Eos ([1]; 40 mg/kg ShSPI, n = 6): 0.09 ± 0.05 10^9/L | HCT ([1]; 40 mg/kg ShSPI, n = 6): 36.98 ± 1.32% | HGB ([1]; 40 mg/kg ShSPI, n = 6): 123.50 ± 5.64 g/L | Lym ([1]; 40 mg/kg ShSPI, n = 6): 6.40 ± 2.49 10^9/L | Lym% ([1]; 40 mg/kg ShSPI, n = 6): 78.20 ± 2.18% | MCH ([1]; 40 mg/kg ShSPI, n = 6): 15.86 ± 0.43 pg | MCHC ([1]; 40 mg/kg ShSPI, n = 6): 333.50 ± 3.98 g/L | MCV ([1]; 40 mg/kg ShSPI, n = 6): 47.56 ± 0.95 fL | MPV ([1]; 40 mg/kg ShSPI, n = 6): 5.35 ± 0.18 fL | Mon ([1]; 40 mg/kg ShSPI, n = 6): 0.28 ± 0.13 10^9/L | Mon% ([1]; 40 mg/kg ShSPI, n = 6): 3.35 ± 0.74% | Neu ([1]; 40 mg/kg ShSPI, n = 6): 1.41 ± 0.69 10^9/L | Neu% ([1]; 40 mg/kg ShSPI, n = 6): 16.78 ± 1.90% | PCT ([1]; 40 mg/kg ShSPI, n = 6): 0.71 ± 0.04% | PDW ([1]; 40 mg/kg ShSPI, n = 6): 15.21 ± 0.17 | PLT ([1]; 40 mg/kg ShSPI, n = 6): 1326.50 ± 494.34 10^9/L | RBC ([1]; 40 mg/kg ShSPI, n = 6): 7.78 ± 0.23 10^12/L | RDW-CV ([1]; 40 mg/kg ShSPI, n = 6): 12.70 ± 0.76% | RDW-SD ([1]; 40 mg/kg ShSPI, n = 6): 26.68 ± 1.26 fL | WBC ([1]; 40 mg/kg ShSPI, n = 6): 8.22 ± 3.30 10^9/L | Bas ([1]; 80 mg/kg ShSPI, n = 6): 0.03 ± 0.04 10^9/L | Bas% ([1]; 80 mg/kg ShSPI, n = 6): 0.56 ± 0.60% | Eos ([1]; 80 mg/kg ShSPI, n = 6): 0.22 ± 0.20 10^9/L | Eos% ([1]; 80 mg/kg ShSPI, n = 6): 3.10 ± 2.15% | HCT ([1]; 80 mg/kg ShSPI, n = 6): 35.93 ± 2.11% | HGB ([1]; 80 mg/kg ShSPI, n = 6): 120.33 ± 6.83 g/L | Lym ([1]; 80 mg/kg ShSPI, n = 6): 4.66 ± 1.68 10^9/L | Lym% ([1]; 80 mg/kg ShSPI, n = 6): 68.93 ± 6.78% | MCH ([1]; 80 mg/kg ShSPI, n = 6): 16.08 ± 0.40 pg | MCHC ([1]; 80 mg/kg ShSPI, n = 6): 335.33 ± 6.28 g/L | MCV ([1]; 80 mg/kg ShSPI, n = 6): 47.95 ± 0.38 fL | MPV ([1]; 80 mg/kg ShSPI, n = 6): 5.48 ± 0.48 fL | Mon ([1]; 80 mg/kg ShSPI, n = 6): 0.38 ± 0.05 10^9/L | Neu ([1]; 80 mg/kg ShSPI, n = 6): 1.35 ± 0.40 10^9/L | Neu% ([1]; 80 mg/kg ShSPI, n = 6): 21.23 ± 5.92% | PCT ([1]; 80 mg/kg ShSPI, n = 6): 0.69 ± 0.09% | PDW ([1]; 80 mg/kg ShSPI, n = 6): 15.33 ± 0.10 | PLT ([1]; 80 mg/kg ShSPI, n = 6): 1272 ± 206.81 10^9/L | RBC ([1]; 80 mg/kg ShSPI, n = 6): 7.49 ± 0.34 10^12/L | RDW-CV ([1]; 80 mg/kg ShSPI, n = 6): 12.18 ± 0.22% | RDW-SD ([1]; 80 mg/kg ShSPI, n = 6): 25.75 ± 1.03 fL | WBC ([1]; 80 mg/kg ShSPI, n = 6): 6.66 ± 2.04 10^9/L | Mon% ([1]; 80 mg/kg ShSPI, n = 6, * p < 0.05 vs blank control): 6.16 ± 1.76 * % | Bas ([1]; 160 mg/kg ShSPI, n = 6): 0.02 ± 0.01 10^9/L | Bas% ([1]; 160 mg/kg ShSPI, n = 6): 0.20 ± 0.12% | Eos ([1]; 160 mg/kg ShSPI, n = 6): 0.21 ± 0.19 10^9/L | Eos% ([1]; 160 mg/kg ShSPI, n = 6): 1.85 ± 1.23% | HCT ([1]; 160 mg/kg ShSPI, n = 6): 37.81 ± 1.30% | HGB ([1]; 160 mg/kg ShSPI, n = 6): 126.66 ± 4.36 g/L | Lym ([1]; 160 mg/kg ShSPI, n = 6): 8.63 ± 2.79 10^9/L | Lym% ([1]; 160 mg/kg ShSPI, n = 6): 75.90 ± 6.54% | MCH ([1]; 160 mg/kg ShSPI, n = 6): 16.05 ± 0.40 pg | MCHC ([1]; 160 mg/kg ShSPI, n = 6): 335.33 ± 4.13 g/L | MCV ([1]; 160 mg/kg ShSPI, n = 6): 47.86 ± 65 fL | MPV ([1]; 160 mg/kg ShSPI, n = 6): 5.21 ± 0.21 fL | Mon ([1]; 160 mg/kg ShSPI, n = 6): 0.42 ± 0.21 10^9/L | Mon% ([1]; 160 mg/kg ShSPI, n = 6): 3.58 ± 0.74% | Neu ([1]; 160 mg/kg ShSPI, n = 6): 2.23 ± 1.28 10^9/L | Neu% ([1]; 160 mg/kg ShSPI, n = 6): 18.46 ± 5.30% | PCT ([1]; 160 mg/kg ShSPI, n = 6): 0.78 ± 0.07% | PDW ([1]; 160 mg/kg ShSPI, n = 6): 15.21 ± 0.07 | PLT ([1]; 160 mg/kg ShSPI, n = 6): 1511.2 ± 178.44 10^9/L | RBC ([1]; 160 mg/kg ShSPI, n = 6): 7.90 ± 0.31 10^12/L | RDW-CV ([1]; 160 mg/kg ShSPI, n = 6): 12.83 ± 0.74% | RDW-SD ([1]; 160 mg/kg ShSPI, n = 6): 27.20 ± 1.81 fL | WBC ([1]; 160 mg/kg ShSPI, n = 6): 11.5 ± 4.13 10^9/L | TGF-β mRNA content in mouse lung tissue ([2]; ShSPI 1–4 mg/kg): no significant impact | mRNA levels of pro-inflammatory cytokines (MCP-1, IL-6, IL-1β, IFN-γ) in lung tissue ([2]; ShSPI high dose 4 mg/kg, β-actin control): restored these pro-inflammatory cytokine ShSPI mRNA levels to normal | IL-10 mRNA level in lung tissue ([2]; ShSPI low dose 1 mg/kg, β-actin control): restored the anti-inflammatory cytokine IL-10 mRNA levels to normal | histopathological examination of major organs ([3]; doses up to 160 mg/kg, end of 14-day observation): no pathological changes | toxicity after single administration ([3]; escalating doses up to 160 mg/kg, 14-day observation): no detectable toxicity observed; also recorded: did not show significant toxic effects
